The values below come from US12138256B2, “Treatment of cardiopulmonary disorders” (Bayer Aktiengesellschaft, priority 2021, dated 2024).

The IC50 is the concentration that gives 50% inhibition. As usually defined, the Papp is a coefficient for how fast a substance crosses the barrier. High values mean fast passage, low ones slow passage. In general, efflux ratio refers to the permeability from basolateral to apical divided by that in the opposite direction, in the common usage.

Where two headings read alike, the source gives them in different places.

One series deals with rabbit saphenous artery. Description: Vasorelaxant effect in vitro: phenylephrine-induced contraction of rabbit saphenous artery rings (C-1.1). Particulars: for % contraction (PE-induced contraction of rabbit saphenous artery): mean +/− SEM; for IC50: Oryctolagus cuniculus, read-out: IC50, inhibition of phenylephrine induced contractions of rabbit saphenous artery rings. Here is the method: Rabbits were anaesthetized and sacrificed by intravenous injection of thiopental sodium (about 50 mg/kg) and exsanguinated. The saphenous artery was removed and divided into rings 3 mm wide. The rings were mounted singly on in each case a pair of triangular hooks open at the end and made of 0.3 mm-thick special wire (Remanium®). Each ring was placed under an initial tension in 5 ml organ baths with Krebs-Henseleit solution which was at 37° C., was gassed with carbogen and had the following composition: NaCl 119 mM; KCl 4.8 mM; CaCl2)×2 H2O 1 mM; MgSO4×7 H2O 1.4 mM; KH2PO41.2 mM; NaHCO325 mM; glucose 10 mM; bovine serum albumin 0.001%. The force of contraction was detected with Statham UC2 cells, amplified and digitized via A/D converters (DAS-1802 HC, Keithley Instruments, Munich) and recorded in parallel on chart recorders. Contractions were induced by addition of phenylephrine.
The concentration necessary to reduce the contraction reached in the preceding control by 50% was calculated from this (IC50). The standard application volume was 5 μl. The proportion of DMSO in the bath solution corresponded to 0.1%.

Series [1] has as its system guinea pig trachea pre-contracted with carbachol. Description: Bronchorelaxation in vitro: carbachol pre-contracted guinea pig trachea rings, wash-out recovery factor (C-3.1). Particulars: 1 μmol/l. Here is the method: Male Dunkin Hartley guinea pig were euthanized using carbon dioxide. The primary bronchus was removed and placed in ice-cold Krebs-Henseleit buffer of following composition (in mmol/l): […] For recording of isometric tension, the bronchial rings were mounted between two hooks. One hook was connected to a force transducer the other was moveable and allowed a precise adjustment of resting tension at 1.5 g. During the equilibration period of 60 min the tissue was washed every 20 min with buffer. […] After 30 min, a cumulative dose response curve of the test compound was constructed. Every concentration was incubated till the response was stable. […] The relaxation was expressed as percentage tension. […] The recovery factor was calculated as a ratio of bronchodilation 1 h after compound application and bronchodilation 1 h after removal (wash out) of test compound. […] Relaxation via Cinaciguat (comparative example 1) and Riociguat (comparative example 2) reached a steady state within the 1 h incubation time. […] In contrast, relaxation induced by comparative example 11 was further progressing during the wash out period (recovery factor 1.41).

Series [2] is described as follows: Caco-2 permeability test (C-5.1). It counts as in vitro ADME, human. Particulars: human; for efflux ratio at 2 h, 2 μM / Papp A→B at 2 h, 2 μM / Papp B→A at 2 h, 2 μM: Caco-2 (2 μM); for Papp A→B at 2 h, 2 μM / Papp B→A at 2 h, 2 μM: concentration per compound 2.0 or 2.4 μM; for Papp A→B at 2 h, 2 μM: read-out: Papp A-B (mean +/− SD); for Papp B→A at 2 h, 2 μM: read-out: Papp B-A (mean +/− SD). How it is done: The in vitro permeation of a test compound across a Caco-2 cell monolayer is a well-established assay system to predict the permeability from the gastro-intestinal tract (1). The permeability of the compounds of the present invention in such Caco-2 cells was determined as described below:
Human caco-2 cells were seeded on 24-well insert plates and were allowed to grow for 14-16 days. For permeability studies, the test compounds were dissolved in DMSO and diluted to the final test concentration of 2 μM with transport buffer [Hanks' Buffered Salt Solution, Gibco/Invitrogen, further supplemented with glucose and HEPES]. For determination of the apical to basolateral permeability (PappA-B), the test compound solution was added to the apical side of the cell monolayer and transport buffer to the basolateral side of the monolayer; for determination of the basolateral to apical permeability (PappB-A), the test compound solution was added to the basolateral side of the cell monolayer and transport buffer to the apical side of the monolayer. Samples were taken from the donor compartment at the beginning of the experiment to confirm mass balance. After an incubation of 2 h at 37° C., samples were taken from both compartments. Samples were analyzed by LC-MS/MS, and the apparent permeability coefficients were calculated. Lucifer Yellow permeability was assayed for each cell monolayer to ensure cell monolayer integrity, and the permeability of Atenolol (low permeability marker) and Sulfasalazine (marker for active excretion) was determined for each batch as quality control.

In series [3] the test system is plasma proteins. Description: Protein binding via Transil assay, human plasma. Type of series: in vitro ADME. Conditions: plasma. The source says:
(§1) The distribution of a test substance between Transil® (phosphatidylcholine lipid bilayers immobilized on silica beads) and plasma is a characteristic feature of any pharmaceutical compound and is dependent on its extent of binding to plasma proteins. By comparing the distribution between Transil® and buffer with the distribution between Transil® and plasma of any species of interest, the unbound fraction in the plasma of the respective animal species can be calculated in vitro. The respective plasma and buffer concentrations were determined via a radioactivity analysis. A detailed description of the method and its validation was published by Schuhmacher et al. (2).

Series [4] has as its system plasma proteins. In words: Protein binding via Transil assay, rat plasma. It counts as in vitro ADME. Particulars: rat plasma.
Text: as §1

The test system of series [5] is plasma proteins. In words: Protein binding via Transil assay, dog plasma. Type of series: in vitro ADME. Conditions: dog plasma.
Text: as §1

Series [6] is described as follows: Stability of the crystalline form during micronization (spiral jet mill, XRPD). It counts as physicochemical. The source says:
Generally no amorphization even partial nor form conversion should happen during the necessary micronization step.
The corresponding batches (examples 8a-8d) were micronized using a 50 mm spiral jet mill and pressurized nitrogen with the following parameters (see table 16b).
The corresponding batches were micronized using a 100 mm spiral jet mill and pressurized nitrogen with the following parameters (see table 16c).

In the case of `O=C(O)c1ccc(CCN(CCc2ccccc2OCc2ccc(-c3ccc(C(F)(F)F)cc3)cc2Cl)[C@H]2CCCc3nc(C(=O)O)ccc32)cc1` [comparative example 11, (5S)-5-{[2-(4-carboxyphenyl)ethyl][2-(2-{[3-chloro-4′-(trifluoromethyl)[biphenyl]-4-yl]methoxy}phenyl)ethyl]amino}-5,6,7,8-tetrahydroquinoline-2-carboxylic acid], the “% contraction (PE-induced contraction of rabbit saphenous artery)” value in the series on rabbit saphenous artery (10^−5 M/L, incubation time 0.5 h) was determined as 19 ± 3.0%; with rabbit saphenous artery (10^−6 M/L, incubation time 0.5 h), 59 ± 4.9%; with rabbit saphenous artery (10^−7 M/L, incubation time 0.5 h), 80 ± 4.6%; with rabbit saphenous artery (10^−8 M/L, incubation time 0.5 h) it was 92 ± 3.0%; in the series on rabbit saphenous artery (10^−8 M/L, incubation time 2.5 h), 29 ± 9.3%; in the series on rabbit saphenous artery (10^−9 M/L, incubation time 0.5 h), 103 ± 3.5%. Further, the “% contraction (PE-induced contraction of rabbit saphenous artery)” value is recorded as 47 ± 6.2% with rabbit saphenous artery (10^−9 M/L, incubation time 2.5 h); 99 ± 3.4% in the series on rabbit saphenous artery (10^−10 M/L, incubation time 0.5 h); 67 ± 5.7% in the series with rabbit saphenous artery (10^−10 M/L, incubation time 2.5 h); 100 ± 1.5% with rabbit saphenous artery (10^−11 M/L, incubation time 0.5 h); 91 ± 2.0% in the series with rabbit saphenous artery (10^−11 M/L, incubation time 2.5 h); 98 ± 0% in the series with rabbit saphenous artery (10^−12 M/L, incubation time 2.5 h). Besides, the IC50 with rabbit saphenous artery (0.5 h, 30 min after incubation) came out at 0.911 µM; in the series on rabbit saphenous artery (preincubation period of 2.5 h), 0.0008 µM. The “Relaxation (%) (timepoint at 70 min) Mean” value in series [1] is recorded as 72.2%. Also, in series [1], the “Relaxation (%) (timepoint at 130 min) Mean” value was determined as 51.3%. Moreover, in series [2] (Caco-2, 2 μM, 2 h at 37° C.), the apparent permeability coefficient (Papp) at 2 h, 2 μM was 15.1 nm/s. For the same molecule, in series [2], the efflux ratio at 2 h, 2 μM was determined as 0.64 ± 0.1. The Papp A→B at 2 h, 2 μM in series [2] stood at 15.1 ± 1.7 nm/s. Also, the Papp B→A at 2 h, 2 μM in series [2] worked out at 9.7 ± 0.6 nm/s. In addition, the “ratio of fraction unbound minipig/human” value in the series on plasma proteins [3] was found to be 4.55. Further, the “fraction unbound, times lower than comparative example 1” value in the series with plasma proteins [4] came out at 1.6 times; in the series on plasma proteins [5] it was 10 times.
In the case of `O=C(O)c1ccc(CCN(CCc2ccccc2OCc2ccc(-c3ccc(C(F)(F)F)cc3)cc2Cl)[C@H]2CCCc3nc(C(=O)O)ccc32)cc1` [example 2, (5S)-{[2-(4-Carboxyphenyl)ethyl][2-(2-{[3-chloro-4′-(trifluoromethyl)biphenyl-4-yl]methoxy}phenyl)-ethyl]amino}-5,6,7,8-tetrahydroquinoline-2-carboxylic acid], the “stability of the form under micronization” value in series [6] is “monohydrate II with partial amorphization”; in series [6] (listed as monohydrate II) it was “partial amorphization occurred under several conditions”.
Consider `O=C(O)c1ccc(CCN(CCc2ccccc2OCc2ccc(-c3ccc(C(F)(F)F)cc3)cc2Cl)[C@H]2CCCc3nc(C(=O)O)ccc32)cc1` [example 4, (5S)-{[2-(4-Carboxyphenyl)ethyl][2-(2-{[3-chloro-4′-(trifluoromethyl)biphenyl-4-yl]methoxy}phenyl)-ethyl]amino}-5,6,7,8-tetrahydroquinoline-2-carboxylic acid], for which the “stability of the form under micronization” value in series [6] (listed as monohydrate I) is “stable under micronization conditions”.
With `O=C(O)CCCCN(CCc1ccccc1OCc1ccc(CCc2ccccc2)cc1)Cc1ccc(C(=O)O)cc1` [comparative example 1, 4-[((4Carboxybutyl)-{2-[(4-phenethylbenzyl)oxy]phenethyl}amino)methyl]benzoic acid], the IC50 in the series with rabbit saphenous artery (0.5 h, 30 min after incubation) was found to be 0.017 µM. In addition, the concentration for half-maximal inhibition (IC50) in the series on rabbit saphenous artery (preincubation period of 2.5 h) turned out to be 0.003 µM. Besides, in series [2], the efflux ratio at 2 h, 2 μM worked out at 20 ± 3.5; the Papp A→B at 2 h, 2 μM came to 31 ± 3.9 nm/s; the Papp B→A at 2 h, 2 μM came out at 631 ± 71 nm/s.
